Laboratory results reported in patent publication US10278954B2, “Method of treating a CNS disorder using a water-soluble histone deacetylase inhibitor” (priority 2016, dated 2019).

Experiments:
[1] = tested on: synaptophysin; experiment: Synaptophysin ELISA of protein isolated from rat brain; format: in vivo; details: 21 days after infusion; 1 way ANOVA p>0.05
Experimental: A) Immunofluorescent microscopy of fixed rat brain for neurons (NeuN) and glia (GFAP) 21 days after acute striatal infusion of 5 μl of either aCSF (control), F127-aCSF or F127-PAN. B) Synaptophysin ELISA of protein isolated from rat brain 21 days after infusion comparing F127-aCSF, F127-PAN and Panobinostat in DMSO against aCSF and untreated controls. […] (1 way ANOVA p>0.05).

[2] = tested on: SF7761 glioma cell line; experiment: MTT assay, SF7761; format: cell-based, human
Experimental: (§1) Two independent glioma cell lines (A) SF7761 and (B) SF8628 were dosed with sodium valproate for 72 h, then subjected to an MTT assay to assess the effect of the drug on proliferation of glioma cells. Results are expressed as a % relative to untreated control. […] Two glioma cell lines (A) SF7761 and (B) SF8628 were dosed with sodium valproate for 72 h, followed by 6 h of carboplatin, after which, the drug was washed out and given fresh sodium valproate. Proliferation was assessed by MTT assay, and results expressed as a % relative to the untreated control cells.

[3] = tested on: SF8628 glioma cell line; experiment: MTT assay, SF8628; format: cell-based, human
Experimental: as §1

[4] = tested on: glioma cell line; experiment: MTT assay, 6 h sequential dosing on two consecutive days; format: cell-based, human
Experimental: One glioma cell line thus far has been tested with (A) 6 h dosing of VPA repeated one two consecutive days, followed by assessment of proliferation by MTT.

[5] = tested on: normal hippocampal neuronal and glial cells; experiment: Toxicity in normal hippocampal cultures (B3 tubulin, GFAP staining); format: cell-based; details: 6 h dosing, assayed 72 h after
Experimental: Normal hippocampal cells were plated onto coverslips and grown for 72 h prior to dosing with sodium valproate to assess the toxicity of the drug against normal neuronal and glial cells. Cells were drugged with sodium valproate for 6 h, after which time the drug was washed off and fresh media added. Cells were further incubated for 72 h prior to fixing and staining with B3 tubulin (neuronal marker) and GFAP (glial cell marker) to determine to the toxicity of sodium valproate.

[6] = pre-conditioning with sodium valproate prior to carboplatin
[7] = sodium valproate 72 h, then 6 h carboplatin

Row | Compound | synaptophysin concentration against aCSF and untreated controls [1] | cytotoxicity (proliferation, % relative to untreated control) ([2]; 72 h dosing) | combination index (CI) [2, 6] | effect of pre-dosing on cytotoxicity of carboplatin [2, 7] | cytotoxicity (proliferation, % relative to untreated control) ([3]; 72 h dosing) | combination index (CI) [3, 6] | effect of pre-dosing on cytotoxicity of carboplatin [3, 7] | cell viability, % relative to control ([4]; 6 h dosing on two consecutive days) | cell viability, combined dosing with carboplatin ([4]; carboplatin and sodium valproate 6 h on two consecutive days) | glial toxicity (GFAP) ([5]; 20 mM) | neuronal toxicity (B3 tubulin) [5]
1 | Cc1[nH]c2ccccc2c1CCNCc1ccc(/C=C/C(=O)NO)cc1 [Panobinostat in DMSO, panobinostat] | No significant difference detected | – | – | – | – | – | – | – | – | – | –
2 | CCCC(CCC)C(=O)[O-].[Na+] [sodium valproate] | – | causes cytotoxicity to glioma cells in a dose dependent manner | below 1 | potentiates the cytotoxicity of carboplatin | causes cytotoxicity to glioma cells in a dose dependent manner | below 1 | potentiates the cytotoxicity of carboplatin | dose dependent decrease in cell viability | greater decrease in cell viability compared with carboplatin alone | Some toxicity | minimal neuronal toxicity
